{"source": "patent US9499537B2", "about": "“Antiviral pyrrolopyridine derivatives and method for preparing the same” (KOREA RESEARCH INSTITUTE OF CHEMICAL TECHNOLOGY, priority 2011, dated 2016)"}
{"test_system": "MT-4 cells", "test": "Cytotoxicity test in MT-4 cells (MTT method)", "assay_type": "cell-based", "settings": "human", "experimental": "In order to look into the HIV-1 inhibition effects of the compound of the present invention, an in vitro test for HIV-1 inhibition effects was carried out as follows according to a known method (H. Tanaka et al., J. Med. Chem., 1991, 34, 349). MT-4 cells were used as host cells, and the degree of the compound of the present invention inhibiting the cytotoxicity of the virus-infected MT-4 cells was investigated.\nFirst, MT-4 cells were diffused at a concentration of 1×10^4 cell/well to a culture medium, and HIV-1 was inoculated so that the concentration was 500 TCI50 (concentration at which 50% of the cell is infected)/well. Immediately after the inoculation, the cell dispersion was transferred in 100 μL each to a flat microtiter plate in which the sample of the compound of the present invention was placed. The sample was incubated for approximately for 4 to 5 days at […], and the virus suppression effect was determined using an MTT method. In addition, the cytotoxicity was also determined by measuring the survivability of the experimentally virus-infected cells using an MTT method. As a comparative compound, azidothymidine (AZT) and raltegravir were used.", "units": {"CC60 (μM) ** : concentration at 50% cell damage with respect to MT-4 cells": "µM"}}
{"compound": "Cc1nc2c(c(C)c(C)n2C)c(-c2ccc(Cl)cc2)c1C(OC(C)(C)C)C(=O)O", "note": "(stereo not shown) [Example 1, 2-Tert-butoxy-2-(4-(4-chlorophenyl)-1,2,3,6-tetramethyl-1H-pyrrolo[2,3-b]pyridin-5-yl)acetic acid]", "CC60 (μM) ** : concentration at 50% cell damage with respect to MT-4 cells": 25}
{"compound": "CCn1c(C)c(C)c2c(-c3ccc(Cl)cc3)c(C(OC(C)(C)C)C(=O)O)c(C)nc21", "note": "(stereo not shown) [Example 2, 2-Tert-butoxy-2-(4-(4-chlorophenyl)-1-ethyl-2,3,6-trimethyl-1H-pyrrolo[2,3-b]pyridin-5-yl)acetic acid]", "CC60 (μM) ** : concentration at 50% cell damage with respect to MT-4 cells": ">233"}
{"compound": "C=CCn1c(C)c(C)c2c(-c3ccc(Cl)cc3)c(C(OC(C)(C)C)C(=O)O)c(C)nc21", "note": "(stereo not shown) [Example 3, 2-(1-Allyl-4-(4-chlorophenyl)-2,3,6-trimethyl-1H-pyrrolo[2,3-b]pyridin-5-yl)-2-tert-butoxyacetic acid]", "CC60 (μM) ** : concentration at 50% cell damage with respect to MT-4 cells": 26.19}
{"compound": "Cc1nc2c(c(C)c(C)n2CC2CC2)c(-c2ccc(Cl)cc2)c1C(OC(C)(C)C)C(=O)O", "note": "(stereo not shown) [Example 4, 2-Tert-butoxy-2-(4-(4-chlorophenyl)-1-(cyclopropylmethyl)-2,3,6-trimethyl-1H-pyrrolo[2,3-b]pyridin-5-yl)acetic acid]", "CC60 (μM) ** : concentration at 50% cell damage with respect to MT-4 cells": 18}
{"compound": "Cc1nc2c(c(C)c(C)n2Cc2ccccc2)c(-c2ccc(Cl)cc2)c1C(OC(C)(C)C)C(=O)O", "note": "(stereo not shown) [Example 5, 2-(1-Benzyl-4-(4-chlorophenyl)-2,3,6-trimethyl-1H-pyrrolo[2,3-b]pyridin-5-yl)-2-tert-butoxyacetic acid]", "CC60 (μM) ** : concentration at 50% cell damage with respect to MT-4 cells": 17}
{"compound": "Cc1nc2c(c(C)c(C)n2Cc2cccc(Cl)c2)c(-c2ccc(Cl)cc2)c1C(OC(C)(C)C)C(=O)O", "note": "(stereo not shown) [Example 6, 2-Tert-butoxy-2-(1-(3-chlorobenzyl)-4-(4-chlorophenyl)-2,3,6-trimethyl-1H-pyrrolo[2,3-b]pyridin-5-yl)acetic acid]", "CC60 (μM) ** : concentration at 50% cell damage with respect to MT-4 cells": 9.74}
{"compound": "Cc1nc2c(c(C)c(C)n2Cc2ccc(F)cc2)c(-c2ccc(Cl)cc2)c1C(OC(C)(C)C)C(=O)O", "note": "(stereo not shown) [Example 8, 2-Tert-butoxy-2-(4-(4-chlorophenyl)-1-(4-fluorobenzyl)-2,3,6-trimethyl-1H-pyrrolo[2,3-b]pyridin-5-yl)acetic acid]", "CC60 (μM) ** : concentration at 50% cell damage with respect to MT-4 cells": 12.8}
{"compound": "COc1ccc(Cn2c(C)c(C)c3c(-c4ccc(Cl)cc4)c(C(OC(C)(C)C)C(=O)O)c(C)nc32)cc1", "note": "(stereo not shown) [Example 9, 2-Tert-butoxy-2-(4-(4-chlorophenyl)-1-(4-methoxybenzyl)-2,3,6-trimethyl-1H-pyrrolo[2,3-b]pyridin-5-yl)acetic acid]", "CC60 (μM) ** : concentration at 50% cell damage with respect to MT-4 cells": 18.04}
{"compound": "Cc1nc2c(c(C)c(C)n2Cc2ccncc2)c(-c2ccc(Cl)cc2)c1C(OC(C)(C)C)C(=O)O", "note": "(stereo not shown) [Example 10, 2-Tert-butoxy-2-(4-(4-chlorophenyl)-2,3,6-trimethyl-1-(pyridin-4-ylmethyl)-1H-pyrrolo[2,3-b]pyridin-5-yl)acetic acid]", "CC60 (μM) ** : concentration at 50% cell damage with respect to MT-4 cells": ">203"}
{"compound": "Cc1nc2c(c(C)c(C)n2Cc2ccccc2C#N)c(-c2ccc(Cl)cc2)c1C(OC(C)(C)C)C(=O)O", "note": "(stereo not shown) [Example 11, 2-Tert-butoxy-2-(4-(4-chlorophenyl)-1-(2-cyanobenzyl)-2,3,6-trimethyl-1H-pyrrolo[2,3-b]pyridin-5-yl)acetic acid]", "CC60 (μM) ** : concentration at 50% cell damage with respect to MT-4 cells": 15.19}
{"compound": "Cc1nc2c(c(C)c(C)n2Cc2cccnc2)c(-c2ccc(Cl)cc2)c1C(OC(C)(C)C)C(=O)O", "note": "(stereo not shown) [Example 12, 2-Tert-butoxy-2-(4-(4-chlorophenyl)-2,3,6-trimethyl-1-(pyridin-3-ylmethyl)-1H-pyrrolo[2,3-b]pyridin-5-yl)acetic acid]", "CC60 (μM) ** : concentration at 50% cell damage with respect to MT-4 cells": 56.14}
{"compound": "Cc1nc2c(c(C)c(C)n2Cc2ccccn2)c(-c2ccc(Cl)cc2)c1C(OC(C)(C)C)C(=O)O", "note": "(stereo not shown) [Example 13, 2-Tert-butoxy-2-(4-(4-chlorophenyl)-2,3,6-trimethyl-1-(pyridin-2-ylmethyl)-1H-pyrrolo[2,3-b]pyridin-5-yl)acetic acid]", "CC60 (μM) ** : concentration at 50% cell damage with respect to MT-4 cells": 85.91}
{"compound": "Cc1cccc(Cn2c(C)c(C)c3c(-c4ccc(Cl)cc4)c(C(OC(C)(C)C)C(=O)O)c(C)nc32)n1", "note": "(stereo not shown) [Example 14, 2-Tert-butoxy-2-(4-(4-chlorophenyl)-2,3,6-trimethyl-1-((6-methylpyridin-2-yl)methyl)-1H-pyrrolo[2,3-b]pyridin-5-yl)acetic acid]", "CC60 (μM) ** : concentration at 50% cell damage with respect to MT-4 cells": 36.6}
{"compound": "CCCn1c(C)c(C)c2c(-c3ccc(Cl)cc3)c(C(OC(C)(C)C)C(=O)O)c(C)nc21", "note": "(stereo not shown) [Example 15, 2-Tert-butoxy-2-(4-(4-chlorophenyl)-2,3,6-trimethyl-1-propyl-1H-pyrrolo[2,3-b]pyridin-5-yl)acetic acid]", "CC60 (μM) ** : concentration at 50% cell damage with respect to MT-4 cells": 20.7}
{"compound": "CCCCn1c(C)c(C)c2c(-c3ccc(Cl)cc3)c(C(OC(C)(C)C)C(=O)O)c(C)nc21", "note": "(stereo not shown) [Example 16, 2-Tert-butoxy-2-(1-butyl-4-(4-chlorophenyl)-2,3,6-trimethyl-1H-pyrrolo[2,3-b]pyridin-5-yl)acetic acid]", "CC60 (μM) ** : concentration at 50% cell damage with respect to MT-4 cells": ">219"}
{"compound": "Cc1nc2c(c(C)c(C)n2CC(C)C)c(-c2ccc(Cl)cc2)c1C(OC(C)(C)C)C(=O)O", "note": "(stereo not shown) [Example 17, 2-Tert-butoxy-2-(4-(4-chlorophenyl)-1-isobutyl-2,3,6-trimethyl-1H-pyrrolo[2,3-b]pyridin-5-yl)acetic acid]", "CC60 (μM) ** : concentration at 50% cell damage with respect to MT-4 cells": 17.57}
{"compound": "Cc1nc2c(c(C)c(C)n2CCC(C)C)c(-c2ccc(Cl)cc2)c1C(OC(C)(C)C)C(=O)O", "note": "(stereo not shown) [Example 18, 2-Tert-butoxy-2-(4-(4-chlorophenyl)-1-isopentyl-2,3,6-trimethyl-1H-pyrrolo[2,3-b]pyridin-5-yl)acetic acid]", "CC60 (μM) ** : concentration at 50% cell damage with respect to MT-4 cells": 17.32}
{"compound": "Cc1nc2c(c(C)c(C)n2CN2C(=O)c3ccccc3C2=O)c(-c2ccc(Cl)cc2)c1C(OC(C)(C)C)C(=O)O", "note": "(stereo not shown) [Example 19, 2-Tert-butoxy-2-(4-(4-chlorophenyl)-1-((1,3-dioxoisoindolin-2-yl)methyl)-2,3,6-trimethyl-1H-pyrrolo[2,3-b]pyridin-5-yl)acetic acid]", "CC60 (μM) ** : concentration at 50% cell damage with respect to MT-4 cells": ">179"}
{"compound": "C#CCn1c(C)c(C)c2c(-c3ccc(Cl)cc3)c(C(OC(C)(C)C)C(=O)O)c(C)nc21", "note": "(stereo not shown) [Example 20, 2-Tert-butoxy-2-(4-(4-chlorophenyl)-2,3,6-trimethyl-1-(prop-2-ynyl)-1H-pyrrolo[2,3-b]pyridin-5-yl)acetic acid]", "CC60 (μM) ** : concentration at 50% cell damage with respect to MT-4 cells": 18.77}
{"compound": "Cc1nc2c(c(C)c(C)n2C(C)C)c(-c2ccc(Cl)cc2)c1C(OC(C)(C)C)C(=O)O", "note": "(stereo not shown) [Example 21, 2-Tert-butoxy-2-(4-(4-chlorophenyl)-1-isopropyl-2,3,6-trimethyl-1H-pyrrolo[2,3-b]pyridin-5-yl)acetic acid]", "CC60 (μM) ** : concentration at 50% cell damage with respect to MT-4 cells": 24.51}
{"compound": "Cc1nc2c(c(C)c(C)n2CC#N)c(-c2ccc(Cl)cc2)c1C(OC(C)(C)C)C(=O)O", "note": "(stereo not shown) [Example 22, 2-Tert-butoxy-2-(4-(4-chlorophenyl)-1-cyanomethyl-2,3,6-trimethyl-1H-pyrrolo[2,3-b]pyridin-5-yl)acetic acid]", "CC60 (μM) ** : concentration at 50% cell damage with respect to MT-4 cells": 114.47}
{"compound": "Cc1nc2c(c(C)c(C)n2CCC#N)c(-c2ccc(Cl)cc2)c1C(OC(C)(C)C)C(=O)O", "note": "(stereo not shown) [Example 23, 2-Tert-butoxy-2-(4-(4-chlorophenyl)-1-(2-cyanoethyl)-2,3,6-trimethyl-1H-pyrrolo[2,3-b]pyridin-5-yl)acetic acid]", "CC60 (μM) ** : concentration at 50% cell damage with respect to MT-4 cells": 25.49}
{"compound": "Cc1nc2c(c(C)c(C)n2CCO)c(-c2ccc(Cl)cc2)c1C(OC(C)(C)C)C(=O)O", "note": "(stereo not shown) [Example 24, 2-Tert-butoxy-2-(4-(4-chlorophenyl)-1-(2-hydroxyethyl)-2,3,6-trimethyl-1H-pyrrolo[2,3-b]pyridin-5-yl)acetic acid]", "CC60 (μM) ** : concentration at 50% cell damage with respect to MT-4 cells": 75.04}
{"compound": "Cc1nc2[nH]c(C)c(C)c2c(-c2ccc(Cl)cc2)c1C(OC(C)(C)C)C(=O)O", "note": "(stereo not shown) [Example 25, 2-Tert-butoxy-2-(4-(4-chlorophenyl)-2,3,6-trimethyl-1H-pyrrolo[2,3-b]pyridin-5-yl)acetic acid]", "CC60 (μM) ** : concentration at 50% cell damage with respect to MT-4 cells": 108}
{"compound": "Cc1nc2c(c(C)c(C)n2C)c(-c2ccc(Cl)cc2)c1[C@H](OC(C)(C)C)C(=O)O", "note": "[Example 26, (S)-2-Tert-butoxy-2-(4-(4-chlorophenyl)-1,2,3,6-tetramethyl-1H-pyrrolo[2,3-b]pyridin-5-yl)acetic acid]", "CC60 (μM) ** : concentration at 50% cell damage with respect to MT-4 cells": 55.84}
{"compound": "Cc1nc2c(c(C)c(C)n2C)c(-c2ccc(Cl)cc2)c1[C@@H](OC(C)(C)C)C(=O)O", "note": "[Example 27, (R)-2-tert-butoxy-2-(4-(4-chlorophenyl)-1,2,3,6-tetramethyl-1H-pyrrolo[2,3-b]pyridin-5-yl)acetic acid]", "CC60 (μM) ** : concentration at 50% cell damage with respect to MT-4 cells": 29}
{"compound": "Cc1nc2c(c(C)c(C)n2CC2CC2)c(-c2ccc(Cl)cc2)c1[C@H](OC(C)(C)C)C(=O)O", "note": "[Example 28, (S)-2-Tert-butoxy-2-(4-(4-chlorophenyl)-1-(cyclopropylmethyl)-2,3,6-trimethyl-1H-pyrrolo[2,3-b]pyridin-5-yl)acetic acid]", "CC60 (μM) ** : concentration at 50% cell damage with respect to MT-4 cells": 20.4}
{"compound": "Cc1nc2c(c(C)c(C)n2CC2CC2)c(-c2ccc(Cl)cc2)c1[C@@H](OC(C)(C)C)C(=O)O", "note": "[Example 29, (R)-2-tert-butoxy-2-(4-(4-chlorophenyl)-1-(cyclopropylmethyl)-2,3,6-trimethyl-1H-pyrrolo[2,3-b]pyridin-5-yl)acetic acid]", "CC60 (μM) ** : concentration at 50% cell damage with respect to MT-4 cells": 100}
